Data published in article PMC6033897, “Characterization and Validation of a Human 3D Cardiac Microtissue for the Assessment of Changes in Cardiac Pathology” (Scientific Reports, 2018).
Where a name gives a salt, the structure may show the parent alone.

Experiments:
[1] = total Cmax, therapeutically relevant maximum total plasma concentration; source not given; cited from earlier work
cardiac microtissues [2] = assay: ER integrity (ER-Tracker blue imaging) in cardiac microtissues; format: cell-based, human; conditions: Homo sapiens; cardiac microtissues, 72 hours, geometric mean; read-out: ER integrity IC50
Description: (§1) Cardiac microtissues were stained with fluorescent probes in cell culture media, 40 µl media was removed and 40 µl of 2x multiplexed dye was added back to the well for 30 minutes at 37 °C, 5% CO2. Fluorescent probes used were ER-Tracker blue (2 µM) to measure endoplasmic reticulum (ER) integrity and TMRE (500 nM) to measure mitochondrial membrane potential (ΔΨm). All microtissues were imaged on a Cell Voyager 7000 (YokogawaInc.) and images captured using a 20x objective (Olympus UPLSAPO 0.75 NA, 0.6 mm WD), with a 2 × 2 bin. Plates are imaged live, prior to use the stage temperature was set to 37 °C and CO2 level at 5%. […] Transmitted light images were acquired using a 100 W Halogen lamp as an illumination source. Images were captured over a 60 μm range in the Z-axis with a 5 μm interval between slices. Z-stack images were output as a maximal projection of multiple z-planes.
(§2) Maximum projection images were imported and analysed in the Columbus Platform (v2.7, Perkin Elmer Inc.).

hCF [3] = assay: Mitochondrial membrane potential (ΔΨm) in 2D monoculture; conditions: Homo sapiens, read-out: Mitochondrial membrane potential (ΔΨm) IC50
hiPS-CM [4] = assay: ER integrity in 2D monoculture; format: cell-based; conditions: Homo sapiens
Description: (§3) For 2D monoculture, hiPS-CM, hCMEC and hCF were cultured as described above and seeded in CellCarrier-384 Ultra microplates (Perkin Elmer, 6057300) at 5000, 2500 and 1750 cells/well respectively.
(§4) Monoculture cells were stained with fluorescent probes diluted in cell culture media, 25 µl media was removed and 25 µl of 2x multiplexed dye was added back to the well for 15 minutes at 37 °C, 5% CO2.

hCMEC [5] = assay: ER integrity in 2D monoculture; format: cell-based; conditions: Homo sapiens
Description: as §3, §4

hCF [6] = assay: Cellular viability (ATP depletion) in 2D monoculture; conditions: Homo sapiens, read-out: Cellular viability (ATP depletion) IC50
hiPS-CM [7] = assay: as above; format: cell-based; conditions: Homo sapiens
Description: as §3
(§5) Cellular ATP concentrations were assessed using the CellTiter-Glo® Luminescent Cell Viability Assay as per the manufacturer’s instructions (Promega); for cardiac microtissues 40 µl media was removed prior to the addition of 40 µl CellTiter-Glo® reagent. […] Data from the same treatment on minimum of 3 occasions were averaged to represent the mean ATP measurement.

hCMEC [8] = assay: as above; format: cell-based; conditions: Homo sapiens
Description: as §3, §5

cardiac microtissues [9] = assay: Cellular viability (ATP depletion, CellTiter-Glo) in cardiac microtissues; format: cell-based, human; conditions: Homo sapiens, cardiac microtissues, read-out: Cellular viability (ATP depletion) IC50
Description: as §5

cardiac spheroids = system: cardiac spheroids; parameters: method as in PMID 28765558; conditions: alternative cardiac spheroids; cited from earlier work
hCF [10] = assay: ER integrity in 2D monoculture; conditions: Homo sapiens, read-out: ER integrity IC50
cardiac microtissues [11] = assay: Mitochondrial membrane potential (ΔΨm, TMRE imaging) in cardiac microtissues; format: cell-based, human; conditions: Homo sapiens; cardiac microtissues, 72 hours, geometric mean; read-out: Mitochondrial membrane potential (ΔΨm) IC50
Description: as §1, §2

hiPS-CM [12] = assay: Mitochondrial membrane potential (ΔΨm) in 2D monoculture; format: cell-based; conditions: Homo sapiens
Description: as §3, §4

hCMEC [13] = assay: as above; format: cell-based; conditions: Homo sapiens
Description: as §3, §4

- IC50 (cardiac microtissues [2]): 3.18 µM
- IC50 (hCF [3]; 24 h): > 50 µM
- IC50 (hCF [3]; 72 h): > 50 µM
- IC50 (hiPS-CM [4]; 24 hours): 10.5 µM
- IC50 (hiPS-CM [4]; 72 hours): 76.5 µM
- IC50 (hCMEC [5]; 24 hours): 43.6 µM
- IC50 (hCMEC [5]; 72 hours): 31 µM
- IC50 (hCF [10]; 24 h): 6.39 µM
- IC50 (hCF [10]; 72 h): 46.6 µM
- IC50 (cardiac microtissues [11]): 0.18 µM
- IC50 (hiPS-CM [12]; 24 hours): 8.28 µM
- IC50 (hiPS-CM [12]; 72 hours): 16.9 µM
- IC50 (hCMEC [13]; 24 hours): > 50 µM
- IC50 (hCMEC [13]; 72 hours): > 50 µM
SMILES: COc1cccc2c1C(=O)c1c(O)c3c(c(O)c1C2=O)C[C@@](O)(C(=O)CO)C[C@@H]3O[C@H]1C[C@H](N)[C@H](O)[C@H](C)O1 [Doxorubicin HCl]
- Cmax [1]: 15.3 µM
- IC50 (hCF [6]; 24 h): 0.62 µM
- IC50 (hCF [6]; 72 h): 0.11 µM
- IC50 (hiPS-CM [7]; 24 hours): 9.26 µM
- IC50 (hiPS-CM [7]; 72 hours): 1.01 µM
- IC50 (hCMEC [8]; 24 hours): 1.03 µM
- IC50 (hCMEC [8]; 72 hours): 0.1 µM
- IC50 (cardiac microtissues [9]; 24 hours): 15.5 µM
- IC50 (cardiac microtissues [9]; 72 hours, geometric mean): 0.83 µM
- Concentration range with significant change in live/dead staining (cardiac spheroids): 5 to 40 µM
